Assay results taken from patent publication US8067189B2, “Methods for determining sensitivity to vascular endothelial growth factor receptor-2 modulators by measuring the level of collagen type IV” (Bristol-Myers Squibb Company, priority 2005, dated 2011).

Assays:
[1] = tested on: VE-Cadherin; test: ELISA of blood samples from tumor bearing mice; assay type: in vivo, mouse; details: 100 mg/kg 1 qd×14 days
Protocol: (§1) Tumors were propagated in nude mice as subcutaneous (sc) transplants using L2987 and HCT-116 cancer cell lines. Tumor passage occurred approximately every two to four weeks. Tumors were then allowed to grow to the pre-determined size window (100-200 mm^3, tumors outside the range were excluded) and animals were evenly distributed to various treatment and control groups. Animals were treated with the example VEGFR-2 inhibitor (100 mg/kg 1 qd×14 days). Treated animals were checked daily for treatment related toxicity/mortality. Each group of animals was weighed before the initiation of treatment (Wt1) and then again following the last treatment dose (Wt2). […] Tumor response was determined by measurement of tumors with a caliper twice a week, until the tumors reached a predetermined target size. […]
(§2) An ELISA method for the detection and measurement of Collagen Type IV and VE-Cadherin on human plasma or any biological sample where the proteins must be detected and measured is described. […] The reaction was terminated by addition of acid and absorbance was measured at 450 nm. A standard curve was prepared from collagen type IV standard dilutions and collagen type IV samples concentration determined. […] The reaction was terminated by addition of acid and absorbance was measured at 450 nm. A standard curve was prepared from VE-cadherin standard dilutions and VE-cadherin samples concentration determined. […]

[2] = tested on: Collagen type IV; test: ELISA of blood samples from tumor bearing mice; assay type: in vivo, mouse; details: 100 mg/kg 1 qd×14 days
Protocol: as §1, §2

[3] = tested on: advanced or metastatic solid tumors; test: Clinical response in phase I dose escalation study CA182-002; assay type: in vivo, human; details: 600 mg/day
Protocol: Blood samples (plasma) for ELISA analysis were obtained from Bristol-Myers Squibb Co. sponsored clinical study CA182-002, which is a phase I dose escalation study to determine the safety, pharmacokinetic, and pharmacodynamics of the example VEGFR-2 inhibitor in patients with advanced or metastatic solid tumors. Blood samples were drawn from patients at screening, pre-dose, and post-dose at 4 hours, Day 1, Day 8, Day 26, and end of treatment. Approximately 60 ml of blood was collected for the protocol specific sampling. Detailed instructions regarding the collection, processing, labeling, handling, storage, and shipment of the specimens were provided in the CA182-002 Laboratory Manual.
Collagen type IV ELISA assays were also examined to see if collagen type IV was useful as a biomarker for clinical response to the example VEGFR-2 inhibitor. […] The reduction in collagen type IV blood levels correlated with clinical evidence of anti-tumor activity. […] Overall, the clinical results from these two evaluable patients confirm the pre-clinical data and indicate that collagen type IV ELISA assay is a clinically useful method to monitor response to a VEGFR-2 modulator(s) such as the example VEGFR-2 inhibitor.

Compound: Cc1cc2c(F)c(Oc3ncnn4cc(OC[C@@H](C)OC(=O)[C@H](C)N)c(C)c34)ccc2[nH]1 [example VEGFR-2 inhibitor, [(1R),2S]-2-Aminopropionic acid 2-[4-(4-fluoro-2-methyl-1H-indol-5-yloxy)-5-methylpyrrolo[2,1-f][1,2,4]triazin-6-yloxy]-1-methylethyl ester]
- amount of VE-Cadherin protein detected in the blood following treatment [1]: decreased to levels observed in the healthy mice bearing no tumors
- amount of Collagen type IV protein detected in the blood following treatment [2]: decreased to levels observed in the healthy mice bearing no tumors
- clinical response ([3]; another patient): did not achieve a clinical response
- time patient was on therapy ([3]; another patient, no clinical response): 32 days
- clinical response ([3]; one patient with ampulla of vater carcinoma): partial response
- time patient remained on therapy ([3]; one patient with ampulla of vater carcinoma, partial response): 126 days
